The term Emax denotes the greatest response seen or fitted, relative to the assay's reference.

The values that follow come from article PMC8424217 (The Journal of Biological Chemistry, 2021).

Peptide text beside a SMILES is read from it. * marks the point of attachment. Palmitoyl = CCCCCCCCCCCCCCCC(=O)*

Assay [1] deals with T1, hUT (Homo sapiens, UniProt Q9UKP6).
T1 sequence (Q9UKP6 1-389): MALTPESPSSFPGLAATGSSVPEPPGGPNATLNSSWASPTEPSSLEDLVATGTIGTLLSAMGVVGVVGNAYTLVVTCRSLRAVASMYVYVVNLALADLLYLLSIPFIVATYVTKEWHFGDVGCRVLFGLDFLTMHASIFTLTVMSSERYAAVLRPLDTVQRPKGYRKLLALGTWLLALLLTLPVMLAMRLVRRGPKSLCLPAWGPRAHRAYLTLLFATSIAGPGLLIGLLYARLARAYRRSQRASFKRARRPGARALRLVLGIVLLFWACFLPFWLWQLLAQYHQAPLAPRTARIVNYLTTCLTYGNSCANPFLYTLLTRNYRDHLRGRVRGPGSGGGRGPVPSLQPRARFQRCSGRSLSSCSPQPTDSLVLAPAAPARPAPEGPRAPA
The assay can be described thus: IP1 production, IP-One terbium immunoassay, CHO-hUT cells. Type of assay: cell-based. Also on record: expressed in transfected cells; host or cells: CHO-K1 cells stably expressing hUT (gift from H. Vaudry and C. Dubessy, University of Rouen). Conditions: for IP1 production efficacy at 10^−5 M: 40 min, normalized to the hUII maximum effect; for EC50: 40 min incubation at 37 °C, mean ± SEM of at least three independent experiments in triplicate, read-out: IP1 production pEC50 (converted). As to the method: Figure 3 IP1production (A and B) and ERK1/2phosphorylation (C and D) kinetics and concentration dependence following hUT activation. IP1 production was evaluated using the IP-One terbium immunoassay kits while ERK1/2 phosphorylation was measured by western blot in CHO-K1 cells stably expressing hUT. […] Each curve represents the mean ± SEM of at least three independent experiments performed in triplicate.
This assay, performed with the IP-One terbium immunoassay kits from Cisbio, was used according to the manufacturer recommendation and as previously described ([43]). Briefly, CHO-hUT cells were grown in 10-cm dishes for 24 h. The cells were then starved without serum. The next day, cells were washed once with PBS and collected in PBS containing 20 mM EDTA. For the assay, 80,000 cells per well (96-well plate) were used. […] IP1-d2 and anti-IP1-cryptate were added for an additional 2 h at room temperature. Plates were read on a Flexstation 3 microplate reader.

Assay [2] deals with T1, hUT. The assay can be described thus: β-arrestin 1 conformational change, BRET biosensor, HEK 293-hUT cells. It is filed as cell-based. Conditions: for Emax: percentage of the activation induced by hUII (10^−6 M), n = 3–5. Further details: expressed in transfected cells. As to the method:
Figure 6 Signaling signature of hUT-pepducins following hUT receptor activation. […] Each curve represents mean ± SEM of at least three independent concentration-response experiments performed in triplicate.
HEK 293-hUT cells were grown in DMEM culture media supplemented with 10% foetal bovine serum, HEPES, sodium pyruvate, and G418 (200 μg mL^−1). Passages were performed when cells reached 80% of confluency. Cells were initially plated in 96-well plates at a density of 10,000 cells/well. The following day, the medium is replaced with DMEM culture media supplemented with 2.5% foetal bovine serum (FBS), and 12 h later, cells were transiently transfected with 25 ng/well of a Gq-polycistronic, 25 ng/well of a G12-polycistronic BRET sensor, 25 ng/well of a G13-polycistronic BRET sensor, 2.5 ng/well pIRESB RLucII-ERK-NLS-GFP BRET sensor, 2.5 ng β-arrestin 1-polycistronic BRET sensor, or 2.5 ng β-arrestin 2-polycistronic BRET sensor using Lipofectamine2000 at a ratio of 3:1 (Lipofectamine/plasmid DNA) in serum-free Opti-MEM ([44], [81]). Sixteen hours posttransfection, medium was replaced with DMEM supplemented with 10% FBS, HEPES, sodium pyruvate and G418 (200 μg mL^−1) and cell growth was resumed for another 16 h. Cells were washed with 150 μl PBS solution supplemented with 0.1% of glucose and then incubated with 80 μl of this solution for 2 h. Then, to evaluate Gq and G12 activation, 10 μl of a 1/20 dilution (diluted before use) of coelenterazine 400A (stock at 1 mM in ethanol) in Kreb's buffer and 10 μl of the 10× appropriate concentration of peptide were added, and the luminescence was evaluated with an Infinite M1000 PRO. […] Readings were performed after 5 min using an Infinite M1000 PRO. Filters were set at 410 nm and 515 nm for detecting the Renilla luciferase II (RlucII, donor) and green fluorescent protein 10 (GFP10, acceptor) light emission, respectively. BRET ratio was determined by calculating the ratio of the light emitted by GFP10 over the light emitted by the RlucII.
(Bioluminescence resonance energy transfer reports proximity on the nanometre scale.)

The target of assay [3] is T2, rat thoracic aorta rings (Rattus norvegicus, UniProt P49684).
T2 sequence (P49684 1-386): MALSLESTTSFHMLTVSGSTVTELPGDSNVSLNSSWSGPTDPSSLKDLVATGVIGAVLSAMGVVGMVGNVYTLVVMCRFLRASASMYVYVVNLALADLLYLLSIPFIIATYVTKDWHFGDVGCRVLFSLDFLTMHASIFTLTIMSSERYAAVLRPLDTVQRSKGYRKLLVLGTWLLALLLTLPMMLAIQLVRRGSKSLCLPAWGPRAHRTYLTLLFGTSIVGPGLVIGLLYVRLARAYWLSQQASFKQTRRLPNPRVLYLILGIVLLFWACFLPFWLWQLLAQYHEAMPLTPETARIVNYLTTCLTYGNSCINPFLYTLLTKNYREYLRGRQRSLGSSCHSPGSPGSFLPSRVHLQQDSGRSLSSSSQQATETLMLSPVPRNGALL
The assay can be described thus: Modulation of hUII-mediated rat aortic ring contraction. Conditions: for Emax: read-out: hUII Emax after pepducin pretreatment. The method, then:
Each replicate (n) was conducted on tissue obtained from at least three different animals. Data represent mean ± SEM.
Adult male Sprague-Dawley rats (Charles-River) weighing 250–300 g were housed in cages under controlled illumination (12:12 h light–dark cycle), humidity, and temperature (21–23 °C) and had free access to tap water and rat chow. All experimental procedures were performed in accordance with regulations and ethical guidelines from the Canadian Council for the Care of Laboratory Animals and received approvals of the institutional animal care and use committee of the Institut National de la Recherche Scientifique—Centre Armand-Frappier Santé Biotechnologie. As previously described ([17], [18]), the thoracic aorta was cleared of surrounding tissue and then excised from the aortic arch to the diaphragm. Conjunctive tissues were next removed from the thoracic aorta and the vessels were divided into five rings of 4 mm. The endothelium of each aortic ring was removed by gently rubbing the vessel intimal surface. Aortic rings were then placed in a 5 ml organ bath filled with oxygenated normal Krebs–Henseleit buffer. Eighty microliters of a 2.5 M potassium chloride solution (40 mM final concentration) was used to evaluate maximal contractile responses of each vessel. […] Cumulative concentration–response curves to synthetic peptides were obtained by increasing the concentration of each peptide in the remaining organ chambers (10^−11–10^−5 M).

`CCCCCCCCCCCCCCCC(=O)N[C@@H](Cc1c[nH]c2ccccc12)C(=O)N[C@@H](CC(C)C)C(=O)N[C@@H](CO)C(=O)N[C@@H](CCC(N)=O)C(=O)N[C@@H](CCCNC(=N)N)C(=O)N[C@@H](C)C(=O)N[C@@H](CO)C(=O)N[C@@H](Cc1ccccc1)C(=O)N[C@@H](CCCCN)C(=O)N[C@@H](CCCNC(=N)N)C(=O)N[C@@H](C)C(=O)N[C@@H](CCCNC(=N)N)C(=O)N[C@@H](CCCNC(=N)N)C(N)=O` [[Trp^1, Leu^2]hUT-Pep3] (Palmitoyl-WLSQRASFKRARR-NH2): the “IP1 production efficacy at 10^−5 M” value in assay [1] (CHO-hUT) was ~60%. Besides, the EC50 was > 1000 nM in assay [1] (CHO-hUT) and 8.32 nM in assay [2] (15 min at RT, mean ± SEM, n = 3–5, read-out: β-arrestin 1 pEC50 (converted)). For the same compound, the Emax was ~18% in assay [2] (15 min at RT, mean ± SEM) and 35 ± 6% in assay [3].
Regarding `CC(C)[C@H](NC(=O)[C@@H]1CSSC[C@H](NC(=O)[C@H](CC(=O)O)NC(=O)[C@@H]2CCCN2C(=O)[C@@H](NC(=O)[C@@H](N)CCC(=O)O)[C@@H](C)O)C(=O)N[C@@H](Cc2ccccc2)C(=O)N[C@@H](Cc2c[nH]c3ccccc23)C(=O)N[C@@H](CCCCN)C(=O)N[C@@H](Cc2ccc(O)cc2)C(=O)N1)C(=O)O` [hUII, urotensin II, reference compound], the maximal response (Emax) in assay [1] worked out at 97 ± 1%; in assay [2] (15 min at RT, mean ± SEM), 104 ± 4%. Further, the “time to plateau of IP1 production” value in assay [1] (CHO-hUT, time course) came to 40 min. Also, the “hUII-mediated contraction pEC50, control (no pretreatment)” value in assay [3] (rat aortic rings, hUII alone, mean ± SEM, n = 19) was determined as 8.69 ± 0.08.
Consider `CCCCCCCCCCCCCCCC(=O)N[C@@H](CCCNC(=N)N)C(=O)N1CCC[C@H]1C(=O)N[C@@H](CC(C)C)C(=O)N[C@@H](CC(=O)O)C(=O)N[C@H](C(=O)N[C@H](C(=O)N[C@@H](CCC(N)=O)C(=O)N[C@@H](CCCNC(=N)N)C(=O)N1CCC[C@H]1C(=O)N[C@@H](CCCCN)C(=O)NCC(=O)N[C@@H](Cc1ccc(O)cc1)C(N)=O)C(C)C)[C@@H](C)O` [hUT-Pep2] (Palmitoyl-RPLDTVQRPKGY-NH2), for which, in assay [1] (CHO-hUT), the “IP1 production efficacy at 10^−5 M” value is “around 35%” and the EC50 is > 1000 nM. The “β-arrestin 1 activation (in words)” value in assay [2] is “inactive”. In assay [3] (rat aortic rings, pepducin 10^−6 M pretreatment), the “shift of hUII / URP concentration–response curve” value is on record as “significant rightward shift in the concentration–response curve of hUII but not URP”. Moreover, the Emax in assay [3] is 86 ± 3%.
